Test results taken from ChEMBL document CHEMBL4433245, “Discovery of GlyT2 Inhibitors Using Structure-Based Pharmacophore Screening and Selectivity Studies by FEP+ Calculations” (ACS Med Chem Lett, 2019).

Legend:
[1] = target: Sodium- and chloride-dependent glycine transporter 1 (Mus musculus) (UniProt P28571); experiment: Inhibition of mouse GlyT1 expressed in porcine aorta […] cells assessed as reduction in [3H]-Glycine uptake incubated for 10 mins at pH 7.4 by scintillation spectroscopy
[2] = target: Sodium- and chloride-dependent glycine transporter 1 (Mus musculus) (UniProt P28571); experiment: Inhibition of mouse GlyT1 expressed in porcine aorta […] cells assessed as reduction in [3H]-Glycine uptake incubated for 10 mins at pH 7.4 by scintillation spectroscopy relative to untreated control

Chain of Sodium- and chloride-dependent glycine transporter 1 (Mus musculus) (P28571 whole entry, looked up): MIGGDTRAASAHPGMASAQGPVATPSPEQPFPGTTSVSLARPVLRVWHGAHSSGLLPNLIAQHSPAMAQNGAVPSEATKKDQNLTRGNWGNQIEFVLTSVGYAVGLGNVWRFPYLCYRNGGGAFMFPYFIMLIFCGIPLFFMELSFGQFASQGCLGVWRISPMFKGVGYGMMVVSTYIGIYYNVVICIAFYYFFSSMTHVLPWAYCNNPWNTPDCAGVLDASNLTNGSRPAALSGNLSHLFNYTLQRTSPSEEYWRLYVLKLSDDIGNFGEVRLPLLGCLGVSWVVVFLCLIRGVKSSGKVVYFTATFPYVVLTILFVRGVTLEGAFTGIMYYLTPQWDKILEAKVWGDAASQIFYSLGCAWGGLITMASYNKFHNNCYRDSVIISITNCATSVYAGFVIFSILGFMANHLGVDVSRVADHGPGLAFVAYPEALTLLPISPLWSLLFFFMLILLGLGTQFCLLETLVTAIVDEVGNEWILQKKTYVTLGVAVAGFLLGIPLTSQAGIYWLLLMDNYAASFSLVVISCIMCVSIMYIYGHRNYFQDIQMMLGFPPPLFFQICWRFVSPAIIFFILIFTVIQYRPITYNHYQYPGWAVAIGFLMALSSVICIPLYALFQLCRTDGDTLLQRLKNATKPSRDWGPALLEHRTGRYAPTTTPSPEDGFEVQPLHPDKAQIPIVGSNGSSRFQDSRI

IC50 [1] [µM]	inhibition [2] [%]	SMILES
> 200	–	O=c1[nH]c2c(c(=O)[nH]1)CCN(Cc1ccccc1)C2
> 200	–	O=C(O)CCSc1[nH]c(=O)nc2[nH]c(=O)[nH]c12
> 200	–	O=C(O)CCCCSc1ncnc2[nH]c(=O)[nH]c12
–	80	CN(CC[C@@H](Oc1ccc(-c2ccccc2)cc1)c1ccc(F)cc1)CC(=O)O
